The record followed here is patent US12404239B2, “Modulators of BCL6 as ligand directed degraders” (Celgene Corporation, priority 2022, dated 2025).

Some results are limits rather than exact numbers.

The assay has as its target T1, BCL6 (Homo sapiens, UniProt P41182).
T1 construct: HiBiT-tag knocked into endogenous BCL6 locus using CRISPR; endogenous in cells; host or cells: DHL-4_BCL6_HiBiT cells (CRISPR knock-in)
Put plainly: BCL6_HiBiT degradation assay (2 h). It is filed as cell-based. The note with it: DHL-4_BCL6_HiBiT cells, read-out: YCon (% remaining maximal effect). The essentials:
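DHL-4 cells carrying CRISPR HiBiT knock-in at endogenous BCL6, treated 2 h at 37 °C with 10-point 3-fold dilutions from 1-10 μM. BCL6 level read by Nano-Glo HiBiT lytic luminescence normalized to DMSO; four-parameter fit gives degradation EC50 and Yconstant (% remaining at maximal effect).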
In general terms: With HiBiT, luminescence reflects the tagged protein that the partner subunit can reach.
In the case of `C[C@@H]1CN(c2ncc(Cl)c(Nc3cc(F)c4c(c3)CC(=O)N4C)n2)CC[C@H]1Nc1ccc2c(C3CCC(=O)NC3=O)nn(C)c2c1` (stereo partly drawn) [Example 95, 3-(6-(((3R,4R)-1-(5-chloro-4-((7-fluoro-1-methyl-2-oxoindolin-5-yl)amino)pyrimidin-2-yl)-3-methylpiperidin-4-yl)amino)-1-methyl-1H-indazol-3-yl)piperidine-2,6-dione], the Percent BCL6 remaining at maximal degradation (Ycon) is under 20%.
In the case of `C[C@@H]1CN(c2ncc(Cl)c(Nc3ccc4c(c3F)CC(=O)N4C)n2)CC[C@H]1Nc1ccc2c(C3CCC(=O)NC3=O)nn(C)c2c1` (stereo partly drawn) [Example 98, 3-(6-(((3R,4R)-1-(5-chloro-4-((4-fluoro-1-methyl-2-oxoindolin-5-yl)amino)pyrimidin-2-yl)-3-methylpiperidin-4-yl)amino)-1-methyl-1H-indazol-3-yl)piperidine-2,6-dione], the Percent BCL6 remaining at maximal degradation (Ycon) was under 20%.
`C[C@@H]1CN(c2ncc(Cl)c(Nc3ccc4c(c3)CC(=O)N4CCN3CCOCC3)n2)CC[C@H]1Nc1ccc2c(C3CCC(=O)NC3=O)nn(C)c2c1` (stereo partly drawn) [Example 101, 3-(6-(((3R,4R)-1-(5-chloro-4-((1-(2-morpholinoethyl)-2-oxoindolin-5-yl)amino)pyrimidin-2-yl)-3-methylpiperidin-4-yl)amino)-1-methyl-1H-indazol-3-yl)piperidine-2,6-dione]: the Percent BCL6 remaining at maximal degradation (Ycon) is under 20%.
The figure for `CNCCN1C(=O)Cc2cc(Nc3nc(N4CC[C@@H](Nc5ccc6c(C7CCC(=O)NC7=O)nn(C)c6c5)[C@H](C)C4)ncc3Cl)ccc21` (stereo partly drawn) [Example 104, 3-(6-(((3R,4R)-1-(5-chloro-4-((1-(2-(methylamino)ethyl)-2-oxoindolin-5-yl)amino)pyrimidin-2-yl)-3-methylpiperidin-4-yl)amino)-1-methyl-1H-indazol-3-yl)piperidine-2,6-dione] is under 20%; for `C[C@@H]1CN(c2ncc(Cl)c(Nc3ccc4c(c3)CC(=O)N4CCC(C)(C)F)n2)CC[C@H]1Nc1ccc2c(C3CCC(=O)NC3=O)nn(C)c2c1` (stereo partly drawn) [Example 107, 3-(6-(((3R,4R)-1-(5-chloro-4-((1-(3-fluoro-3-methylbutyl)-2-oxoindolin-5-yl)amino)pyrimidin-2-yl)-3-methylpiperidin-4-yl)amino)-1-methyl-1H-indazol-3-yl)piperidine-2,6-dione] it is under 20%; for `C[C@@H]1CN(c2ncc(Cl)c(Nc3ccc4c(c3)CC(=O)N4CC(C)(F)F)n2)CC[C@H]1Nc1ccc2c(C3CCC(=O)NC3=O)nn(C)c2c1` (stereo partly drawn) [Example 110, 3-(6-(((3R,4R)-1-(5-chloro-4-((1-(2,2-difluoropropyl)-2-oxoindolin-5-yl)amino)pyrimidin-2-yl)-3-methylpiperidin-4-yl)amino)-1-methyl-1H-indazol-3-yl)piperidine-2,6-dione] it is under 20%.
Consider `C[C@@H]1CN(c2ncc(C#N)c(Nc3ccc4c(c3)CC(=O)N4C)n2)CC[C@H]1Nc1ccc2c(C3CCC(=O)NC3=O)nn(C)c2c1` (stereo partly drawn) [Example 113, 2-((3R,4R)-4-((3-(2,6-dioxopiperidin-3-yl)-1-methyl-1H-indazol-6-yl)amino)-3-methylpiperidin-1-yl)-4-((1-methyl-2-oxoindolin-5-yl)amino)pyrimidine-5-carbonitrile], for which the Percent BCL6 remaining at maximal degradation (Ycon) is under 20%.
For the molecule `C[C@@H]1CN(c2ncc(Cl)c(Nc3ccc4c(c3)CC(=O)N4)n2)CC[C@H]1Nc1ccc2c(C3CCC(=O)NC3=O)nn(C)c2c1` (stereo partly drawn) [Example 114, 3-(6-(((3R,4R)-1-(5-chloro-4-((2-oxoindolin-5-yl)amino)pyrimidin-2-yl)-3-methylpiperidin-4-yl)amino)-1-methyl-1H-indazol-3-yl)piperidine-2,6-dione], the Percent BCL6 remaining at maximal degradation (Ycon) was under 20%.
The figure for `CC(C)N1C(=O)Cc2cc(Nc3nc(N4CC[C@@H](Nc5ccc6c(C7CCC(=O)NC7=O)nn(C)c6c5)[C@H](C)C4)ncc3Cl)ccc21` (stereo partly drawn) [Example 115, 3-(6-(((3R,4R)-1-(5-chloro-4-((1-isopropyl-2-oxoindolin-5-yl)amino)pyrimidin-2-yl)-3-methylpiperidin-4-yl)amino)-1-methyl-1H-indazol-3-yl)piperidine-2,6-dione] is under 20%.
Consider `C[C@@H]1CN(c2ncc(C#N)c(Nc3cc(F)c4c(c3)CC(=O)N4C)n2)CC[C@H]1Nc1ccc2c(C3CCC(=O)NC3=O)nn(C)c2c1` (stereo partly drawn) [Example 116, 2-((3R,4R)-4-((3-(2,6-dioxopiperidin-3-yl)-1-methyl-1H-indazol-6-yl)amino)-3-methylpiperidin-1-yl)-4-((7-fluoro-1-methyl-2-oxoindolin-5-yl)amino)pyrimidine-5-carbonitrile], for which the Percent BCL6 remaining at maximal degradation (Ycon) was under 20%.
On to `C[C@@H]1CN(c2ncc(C#N)c(Nc3cc4c(cc3F)N(C)C(=O)C4)n2)CC[C@H]1Nc1ccc2c(C3CCC(=O)NC3=O)nn(C)c2c1` (stereo partly drawn) [Example 117, 2-((3R,4R)-4-((3-(2,6-dioxopiperidin-3-yl)-1-methyl-1H-indazol-6-yl)amino)-3-methylpiperidin-1-yl)-4-((6-fluoro-1-methyl-2-oxoindolin-5-yl)amino)pyrimidine-5-carbonitrile], for which the Percent BCL6 remaining at maximal degradation (Ycon) is under 20%.
To `C[C@@H]1CN(c2ncc(C#N)c(Nc3ccc4c(c3F)CC(=O)N4C)n2)CC[C@H]1Nc1ccc2c(C3CCC(=O)NC3=O)nn(C)c2c1` (stereo partly drawn) [Example 118, 2-((3R,4R)-4-((3-(2,6-dioxopiperidin-3-yl)-1-methyl-1H-indazol-6-yl)amino)-3-methylpiperidin-1-yl)-4-((4-fluoro-1-methyl-2-oxoindolin-5-yl)amino)pyrimidine-5-carbonitrile] belongs under 20%.
With `C[C@@H]1CN(c2ncc(Cl)c(Nc3ccc4c(c3)CC(=O)N4CCCC(F)(F)F)n2)CC[C@H]1Nc1ccc2c(C3CCC(=O)NC3=O)nn(C)c2c1` (stereo partly drawn) [Example 119, 3-(6-(((3R,4R)-1-(5-chloro-4-((2-oxo-1-(4,4,4-trifluorobutyl)indolin-5-yl)amino)pyrimidin-2-yl)-3-methylpiperidin-4-yl)amino)-1-methyl-1H-indazol-3-yl)piperidine-2,6-dione], the Percent BCL6 remaining at maximal degradation (Ycon) was under 20%.
The figure for `C[C@@H]1CN(c2ncc(Cl)c(Nc3ccc4c(c3)N(CCC(C)(C)O)C(=O)C4)n2)CC[C@H]1Nc1ccc2c(C3CCC(=O)NC3=O)nn(C)c2c1` (stereo partly drawn) [Example 120, 3-(6-(((3R,4R)-1-(5-chloro-4-((1-(3-hydroxy-3-methylbutyl)-2-oxoindolin-6-yl)amino)pyrimidin-2-yl)-3-methylpiperidin-4-yl)amino)-1-methyl-1H-indazol-3-yl)piperidine-2,6-dione] is under 20%.
The figure for `C[C@@H]1CN(c2ncc(Cl)c(Nc3ccc4c(c3)CC(=O)N4CC(C)(C)F)n2)CC[C@H]1Nc1ccc2c(C3CCC(=O)NC3=O)nn(C)c2c1` (stereo partly drawn) [Example 121, 3-(6-(((3R,4R)-1-(5-chloro-4-((1-(2-fluoro-2-methylpropyl)-2-oxoindolin-5-yl)amino)pyrimidin-2-yl)-3-methylpiperidin-4-yl)amino)-1-methyl-1H-indazol-3-yl)piperidine-2,6-dione] is under 20%; for `Cc1nc(N2CC[C@@H](Nc3ccc4c(C5CCC(=O)NC5=O)nn(C)c4c3)[C@H](C)C2)nc(Nc2ccc3c(c2)CC(=O)N3C)c1Cl` (stereo partly drawn) [Example 122, 3-(6-(((3R,4R)-1-(5-chloro-4-methyl-6-((1-methyl-2-oxoindolin-5-yl)amino)pyrimidin-2-yl)-3-methylpiperidin-4-yl)amino)-1-methyl-1H-indazol-3-yl)piperidine-2,6-dione] it is under 20%.
To `C[C@@H]1CN(c2nc(F)c(Cl)c(Nc3ccc4c(c3)CC(=O)N4C)n2)CC[C@H]1Nc1ccc2c(C3CCC(=O)NC3=O)nn(C)c2c1` (stereo partly drawn) [Example 123, 3-(6-(((3R,4R)-1-(5-chloro-4-fluoro-6-((1-methyl-2-oxoindolin-5-yl)amino)pyrimidin-2-yl)-3-methylpiperidin-4-yl)amino)-1-methyl-1H-indazol-3-yl)piperidine-2,6-dione] belongs under 20%; to `Cn1nc(C2CCC(=O)NC2=O)c2ccc(C3CCN(c4ncc(Cl)c(Nc5ccc6c(c5)CC(=O)N6)n4)CC3)cc21` (stereo not drawn) [Example 124, 3-[6-[1-[5-chloro-4-[(2-oxoindolin-5-yl)amino]pyrimidin-2-yl]-4-piperidyl]-1-methyl-indazol-3-yl]piperidine-2,6-dione], over 60%; to `CN1C(=O)Cc2cc(Nc3nc(N4CCC(c5ccc6c(C7CCC(=O)NC7=O)nn(C)c6c5)CC4)ncc3Cl)ccc21` (stereo not drawn) [Example 125, 3-(6-(1-(5-Chloro-4-((1-methyl-2-oxoindolin-5-yl)amino)pyrimidin-2-yl)piperidin-4-yl)-1-methyl-1H-indazol-3-yl)piperidine-2,6-dione], over 60%.
With `CN1C(=O)Cc2cc(Nc3nc(NC4CCN(c5ccc6c(C7CCC(=O)NC7=O)nn(C)c6c5)C(=O)C4)ncc3Cl)ccc21` (stereo not drawn) [Example 126, 3-(6-(4-((5-chloro-4-((1-methyl-2-oxoindolin-5-yl)amino)pyrimidin-2-yl)amino)-2-oxopiperidin-1-yl)-1-methyl-1H-indazol-3-yl)piperidine-2,6-dione], the Percent BCL6 remaining at maximal degradation (Ycon) lay in the range of 20 to 60%.
On to `CN1C(=O)Cc2cc(Nc3nc(N(C)C4CCN(c5ccc6c(C7CCC(=O)NC7=O)nn(C)c6c5)C(=O)C4)ncc3Cl)ccc21` (stereo not drawn) [Example 127, 3-(6-(4-((5-chloro-4-((1-methyl-2-oxoindolin-5-yl)amino)pyrimidin-2-yl)(methyl)amino)-2-oxopiperidin-1-yl)-1-methyl-1H-indazol-3-yl)piperidine-2,6-dione], for which the Percent BCL6 remaining at maximal degradation (Ycon) is under 20%.
